Source: PMC8151276, “An Integrated Approach toward NanoBRET Tracers for Analysis of GPCR Ligand Engagement” (Molecules, 2021)

Legend:
Format in all cases: binding
[1] = target: T1, NPBWR2 (Homo sapiens, UniProt P48146); test: NanoBRET screen HiBiT-NPBWR2 in HEK293; conditions: NPBWR2
T1 construct: purchased Promega (in-house HiBiT-GPCR construct library, NanoBRET)
Procedure: (§1) Each tracer candidate was screened across the entire library of HiBiT-GPCR constructs using NanoBRET as the detection modality. As depicted in Figure 4A, the specificity of interactions was evaluated through decrease in BRET due to competitive displacement of a bound tracer by excess parental compound. Each tracer was analyzed for binding to each HiBiT-GPCR fusion in the absence and in the presence of competing parental compound. Briefly, HEK293 cells were transfected with HiBiT-GPCR constructs diluted into promoterless DNA to reduce expression and maximize translocation to the cell surface. Each tracer candidate was then screened at concentrations of 1 μM and 0.1 μM across cells expressing these fusions. Cells were treated for 1.5 h with tracer either alone or in the presence of 20 μM competing parental compound (i.e., control). BRET was measured upon addition of purified LgBiT and subsequent complementation with HiBiT genetically fused to a GPCR. The specificity of interactions was assessed through a decrease in BRET signal due to competitive displacement of the bound tracer. To further gauge the robustness of these interactions, the fold response over the control (i.e., BRETtracer/BRETcontrol) was calculated. We chose a 1.5-fold response, which translates to ≥7-fold signal over noise as the minimal threshold required to score an interaction as positive. […]. Below we highlight the screening results obtained for our exemplary fluorescent tracers based on Clozapine, Amitriptyline and AZD1283.
(§2) HiBiT-GPCR DNA constructs were diluted in 10 mM Tris pH 8 to a final concentration of 0.01 μg/μL, arrayed in 96-well plates and stored at −20 °C. For transfection, HEK293 cells were suspended in Opti-MEM (without phenol red) supplemented with 2% fetal bovine serum (Seradigm) and 100 units/mL penicillin–streptomycin (Gibco) at a final concentration of 220,000 cells/mL and dispensed into white 96-well plates at 90 μL/well. Subsequent transfections and screens were carried using an Agilent Bravo Automated Liquid Handling Platform. First, the 96-well HiBiT DNA arrays were diluted 25-fold in Opti-MEM (without serum or phenol red) to a final concentration of 0.0004 μg/μL and 20 μL of the diluted DNAs were transferred into new 96-well plates. Next, promoterless carrier DNA (1 μg/μL) was diluted 25-fold (0.04 μg/μL) and then dispensed into the diluted arrays at 20 μL/well. Following brief mixing, Viafect transfection reagent (Promega) diluted 16-fold into Opti-MEM was dispensed into the plates at 40 μL/well. After mixing by pipetting, plates were incubated for 10 min on the pipetting station deck. The DNA-transfection reagent complexes were then added to plates containing cells. To facilitate the screen, 10 μL of DNA-transfection reagent complexes were added in duplicates to the top 4 and bottom 4 rows, resulting in two identical 48-well arrays per plate. Plates with transfected cells were incubated for 18–20 h at 37 °C/5% CO2. A screen of each tracer across the entire library using two different concentrations requires duplicate plates of transfected cells. Depending on the number of tracers being screened, transfections can be scaled up using the same ratios. The next day, for each tracer, four 20× screening solutions in tracer dilution buffer (Promega) were prepared: two duplicates at final concentration of 20 μM and two duplicates at a final concentration of 2 μM. A competing unmodified compound was added to one of each duplicate at a final concentration of 400 μM. The four resulting solutions were diluted 4-fold in Opti-MEM without serum or phenol red to generate 5× solutions (5 µM and 0.5 µM tracer +/− 100 μM competing compound). To screen the library, a BioTek MultiFlo FX liquid dispenser was used to dispense 22.5 µL of tracer solution to the top 4 rows and 22.5 µL tracer + competing compound solution to the 4 bottom rows. Plates were briefly mixed on an orbital shaker and incubated for 1.5 h at room temperature. […]

[2] = target: T2, CXCR6 (Homo sapiens, UniProt O00574); test: NanoBRET screen HiBiT-CXCR6 in HEK293; conditions: CXCR6
T2 construct: purchased Promega (in-house HiBiT-GPCR construct library, NanoBRET)
Procedure: as §1, §2

[3] = target: T3, TACR2 (Homo sapiens, UniProt P21452); test: NanoBRET screen HiBiT-TACR2 in HEK293; conditions: TACR2
T3 construct: purchased Promega (in-house HiBiT-GPCR construct library, NanoBRET)
T3 sequence (P21452 1-398): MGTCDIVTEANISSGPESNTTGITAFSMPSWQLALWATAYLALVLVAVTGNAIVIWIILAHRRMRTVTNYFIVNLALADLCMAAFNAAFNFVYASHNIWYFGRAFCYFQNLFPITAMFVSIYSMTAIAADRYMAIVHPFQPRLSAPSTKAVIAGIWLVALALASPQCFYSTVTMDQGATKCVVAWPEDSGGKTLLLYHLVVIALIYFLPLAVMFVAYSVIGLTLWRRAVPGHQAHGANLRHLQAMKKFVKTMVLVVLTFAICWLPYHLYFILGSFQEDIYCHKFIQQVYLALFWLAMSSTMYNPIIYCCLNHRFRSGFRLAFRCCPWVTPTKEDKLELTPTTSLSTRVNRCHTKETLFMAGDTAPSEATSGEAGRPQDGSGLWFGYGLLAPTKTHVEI
Procedure: as §1, §2

[4] = target: T4, CXCR3 (Homo sapiens, UniProt P49682); test: NanoBRET screen HiBiT-CXCR3 in HEK293; conditions: CXCR3
T4 construct: purchased Promega (in-house HiBiT-GPCR construct library, NanoBRET)
T4 sequence (P49682 1-368): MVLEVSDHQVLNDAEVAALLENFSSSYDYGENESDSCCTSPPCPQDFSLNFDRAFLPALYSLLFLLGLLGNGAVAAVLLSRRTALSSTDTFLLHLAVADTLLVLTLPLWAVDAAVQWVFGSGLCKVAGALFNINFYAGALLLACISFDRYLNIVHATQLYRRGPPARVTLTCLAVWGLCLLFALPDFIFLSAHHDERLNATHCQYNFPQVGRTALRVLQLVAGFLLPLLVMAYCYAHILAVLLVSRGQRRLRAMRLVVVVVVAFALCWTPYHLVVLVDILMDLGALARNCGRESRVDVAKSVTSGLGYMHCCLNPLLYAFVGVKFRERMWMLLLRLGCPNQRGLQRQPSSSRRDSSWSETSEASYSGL
Procedure: as §1, §2

T2 sequence (O00574 whole entry): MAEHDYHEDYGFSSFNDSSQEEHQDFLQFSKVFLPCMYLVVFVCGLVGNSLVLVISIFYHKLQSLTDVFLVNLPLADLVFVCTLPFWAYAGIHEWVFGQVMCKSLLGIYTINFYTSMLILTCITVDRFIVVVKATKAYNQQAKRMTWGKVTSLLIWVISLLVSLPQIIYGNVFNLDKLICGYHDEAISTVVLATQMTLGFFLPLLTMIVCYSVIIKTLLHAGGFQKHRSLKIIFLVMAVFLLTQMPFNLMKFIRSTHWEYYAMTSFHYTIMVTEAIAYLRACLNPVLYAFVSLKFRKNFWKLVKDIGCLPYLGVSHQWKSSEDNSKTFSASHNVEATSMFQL
T1 sequence (P48146 whole entry): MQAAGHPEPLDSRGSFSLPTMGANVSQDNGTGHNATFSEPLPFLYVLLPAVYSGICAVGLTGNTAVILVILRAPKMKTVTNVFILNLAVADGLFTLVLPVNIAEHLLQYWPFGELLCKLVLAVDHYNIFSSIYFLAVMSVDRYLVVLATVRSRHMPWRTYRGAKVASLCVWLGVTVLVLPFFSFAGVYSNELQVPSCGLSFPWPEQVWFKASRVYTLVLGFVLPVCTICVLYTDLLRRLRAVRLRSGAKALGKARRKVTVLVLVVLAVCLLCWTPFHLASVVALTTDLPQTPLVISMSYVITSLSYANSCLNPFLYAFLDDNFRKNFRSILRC

Row | SMILES | NanoBRET Fold Response ([1]; tracer 0.1μM) | NanoBRET Fold Response ([1]; tracer 1μM) | NanoBRET Fold Response ([2]; tracer 0.1μM) | NanoBRET Fold Response ([2]; tracer 1μM) | NanoBRET Fold Response ([3]; tracer 0.1μM) | NanoBRET Fold Response ([3]; tracer 1μM) | NanoBRET Fold Response ([4]; tracer 0.1μM) | NanoBRET Fold Response ([4]; tracer 1μM) | further results
1 | CN1CCN(C2=Nc3cc(Cl)ccc3N(CC(=O)NCCOCCOCCOCCOCCNC(=O)CCc3ccc4n3[B-](F)(F)[N+]3=C(c5ccc[nH]5)C=CC3=C4)c3ccccc32)CC1 [Clozapine-c-2-NB590] |  |  |  |  |  |  |  |  | NanoBRET Fold Response ([1]; 0.1μM tracer): 0.97; NanoBRET Fold Response ([1]; 1μM tracer): 0.98; NanoBRET Fold Response ([2]; 0.1μM tracer): 1.01; NanoBRET Fold Response ([2]; 1μM tracer): 1.04; NanoBRET Fold Response ([3]; 0.1μM tracer): 0.93; NanoBRET Fold Response ([3]; 1μM tracer): 0.88; NanoBRET Fold Response ([4]; 0.1μM tracer): 1.01; NanoBRET Fold Response ([4]; 1μM tracer): 0.76
2 | O=C(CCc1ccc2n1[B-](F)(F)[N+]1=C(c3ccc[nH]3)C=CC1=C2)NCc1ccc(C(=O)NCCOCCC(=O)N[C@@H]2CC[C@@]3(O)[C@H]4Cc5ccc(O)c6c5[C@@]3(CCN4CC3CC3)[C@H]2O6)cc1 [Naltrexone-3-NB590] | 1.05 | 1.04 | 1.02 | 0.91 | 0.82 | 0.91 | 1.39 | 0.78 | 
3 | Cc1cc2c(s1)Nc1ccccc1N=C2N1CCN(CCCNC(=O)CCOCCOCCOCCOCCNC(=O)CCc2ccc3n2[B-](F)(F)[N+]2=C(c4ccc[nH]4)C=CC2=C3)CC1 [Olanzapine-a-2-NB590] | 0.98 | 1.02 | 1.00 | 0.98 | 1.01 | 0.88 | 1.05 | 0.89 | 
4 | O=C(CCc1ccc2n1[B-](F)(F)[N+]1=C(c3ccc[nH]3)C=CC1=C2)NCc1ccc(C(=O)NCCOCCOCCNCC(O)COc2cccc3ccccc23)cc1 (stereo not drawn) [Propranolol-3-NB590] |  |  |  |  |  |  |  |  | NanoBRET Fold Response ([1]; 0.1μM): 1.05; NanoBRET Fold Response ([1]; 1μM): 1.05; NanoBRET Fold Response ([2]; 0.1μM): 0.99; NanoBRET Fold Response ([2]; 1μM): 0.88; NanoBRET Fold Response ([3]; 0.1μM): 1.01; NanoBRET Fold Response ([3]; 1μM): 1.01; NanoBRET Fold Response ([4]; 0.1μM): 0.99; NanoBRET Fold Response ([4]; 1μM): 0.90
5 | O=C(CCc1ccc2n1[B-](F)(F)[N+]1=C(c3ccc[nH]3)C=CC1=C2)NCCOCCOCCNC(=O)OCCOCCN1CCN(C2=Nc3ccccc3Sc3ccccc32)CC1 [Quetiapine-a-2-NB590] | 0.97 | 1.09 | 0.98 | 1.12 | 1.22 | 0.72 | 1.00 | 1.14 | 
6 | Cc1nc2n(c(=O)c1CCN1CCC(c3noc4cc(F)ccc34)CC1)CCCC2OC(=O)NCCOCCOCCOCCOCCNC(=O)CCc1ccc2n1[B-](F)(F)[N+]1=C(c3ccc[nH]3)C=CC1=C2 (stereo not drawn) [Risperidone-2-NB590] | 1.05 | 1.00 | 1.00 | 1.24 | 1.18 | 1.09 | 1.06 | 0.91 | 
